Experimental data as given in the NIST ThermoML archive (doi:10.1021/je060271a).

Details: 303.16 K, Liquid, Vibrating tube method

CCCCCC(=O)OCC(COC(=O)CCCCC)(COC(=O)CCCCC)COC(=O)CCCCC [pentaerythritol tetrahexanoate]
Details | mass density [kg/m3]
25121 kPa | 1003.6
25156 kPa | 1003.5
25186 kPa | 1003.6
25221 kPa | 1003.6
25252 kPa | 1003.7
25282 kPa | 1003.6
25674 kPa | 1003.8
25700 kPa | 1003.9
25725 kPa | 1003.8
25756 kPa | 1003.9
25781 kPa | 1004
25807 kPa | 1003.9
25838 kPa | 1004
25863 kPa | 1004
25889 kPa | 1004
28629 kPa | 1005.5
28934 kPa | 1005.7
28965 kPa | 1005.6
28991 kPa | 1005.6
29017 kPa | 1005.6
29049 kPa | 1005.7
29076 kPa | 1005.7
29102 kPa | 1005.7
29134 kPa | 1005.8
29162 kPa | 1005.6
29189 kPa | 1005.7
29220 kPa | 1005.8
29244 kPa | 1005.8
29266 kPa | 1005.9
29288 kPa | 1005.9
29315 kPa | 1005.9
29338 kPa | 1005.9
29360 kPa | 1005.9
29388 kPa | 1005.8
29410 kPa | 1006
29438 kPa | 1005.9
30312 kPa | 1006.3
30341 kPa | 1006.5
30365 kPa | 1006.5
30389 kPa | 1006.5
30419 kPa | 1006.6
30445 kPa | 1006.4
30470 kPa | 1006.4
30494 kPa | 1006.6
30523 kPa | 1006.6
30548 kPa | 1006.6
30572 kPa | 1006.6
30602 kPa | 1006.5
30627 kPa | 1006.6
30652 kPa | 1006.6
30681 kPa | 1006.5
30706 kPa | 1006.7
30731 kPa | 1006.5
30761 kPa | 1006.7
30788 kPa | 1006.6
30813 kPa | 1006.6
30838 kPa | 1006.7
30868 kPa | 1006.7
30893 kPa | 1006.6
30923 kPa | 1006.7
30949 kPa | 1006.7
30974 kPa | 1006.7
31005 kPa | 1006.9
31031 kPa | 1006.7
31057 kPa | 1006.7
31087 kPa | 1006.8
31114 kPa | 1006.8
31140 kPa | 1006.9
32264 kPa | 1007.5
32284 kPa | 1007.6
32306 kPa | 1007.5
32325 kPa | 1007.5
